Measured values: US9109004B2, “Progesterone receptor antagonists” (Bayer Intellectual Property GmbH, priority 2010, dated 2015)

Molecular target: T1, human progesterone receptor A (Homo sapiens, UniProt P06401)
T1 construct: expressed in transfected cells; host or cells: SK-N-MC human neuroblastoma cells, stably transfected
T1 sequence (P06401 1-769 isoform P06401-2): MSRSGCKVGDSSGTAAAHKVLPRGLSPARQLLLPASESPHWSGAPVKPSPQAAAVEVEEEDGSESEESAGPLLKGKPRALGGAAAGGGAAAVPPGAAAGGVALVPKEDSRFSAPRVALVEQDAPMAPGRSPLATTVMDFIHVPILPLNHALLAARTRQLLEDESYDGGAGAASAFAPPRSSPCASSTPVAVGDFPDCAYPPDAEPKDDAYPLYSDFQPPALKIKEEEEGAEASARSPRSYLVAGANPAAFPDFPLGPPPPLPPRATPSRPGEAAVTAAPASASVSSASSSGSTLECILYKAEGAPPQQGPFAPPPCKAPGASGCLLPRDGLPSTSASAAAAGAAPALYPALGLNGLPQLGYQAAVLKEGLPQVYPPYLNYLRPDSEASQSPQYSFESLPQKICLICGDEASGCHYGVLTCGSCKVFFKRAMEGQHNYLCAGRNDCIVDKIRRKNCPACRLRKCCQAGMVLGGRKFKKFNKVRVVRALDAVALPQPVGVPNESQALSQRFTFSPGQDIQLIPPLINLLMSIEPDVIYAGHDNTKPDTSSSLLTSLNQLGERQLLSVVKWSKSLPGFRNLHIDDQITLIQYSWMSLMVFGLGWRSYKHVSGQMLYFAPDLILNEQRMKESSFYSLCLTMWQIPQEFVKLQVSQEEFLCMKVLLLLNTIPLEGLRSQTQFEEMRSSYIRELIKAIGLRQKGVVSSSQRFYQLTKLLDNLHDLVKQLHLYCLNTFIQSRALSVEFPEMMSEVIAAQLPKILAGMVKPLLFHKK
Assay: Progesterone-receptor-antagonistic action in stably transfected SK-N-MC cells, MTV-LUC reporter (PR-A)
Type: cell-based
Conditions: antagonistic potency vs 0.1 nmol/l promegestone, 24 hours, luciferase
Procedure: Progesterone-Receptor-Antagonistic Action in Stable Transfectants of Human Neuroblastoma Cells (SK-N-MC Cells) with the Human Progesterone A or Progesterone B Receptor and an MTV-LUC Reporter Construct
SK-N-MC cells (human neuroblastoma cells) that have been stably transfected with plasmids that express the human progesterone receptor B (pRChPR-B-neo) or the human progesterone receptor A (pRChPR-A-neo) and a reporter construct (pMMTV-LUC), were incubated for 24 hours either in the absence (negative control) or in the presence of increasing amounts of the particular test compound (0.01 nmol/l, 0.1 nmol/l, 1 nmol/l, 10 nmol/l, 100 nmol/l and 1 μmol/l), to determine the agonistic efficacy. As positive control of reporter gene induction, the cells were treated with the synthetic gestagen promegestone (0.01 nmol/l, 0.1 nmol/l, 1 nmol/l, 10 nmol/l, 100 nmol/l and 1 μmol/l). For determination of the antagonistic activity, the cells were treated with 0.1 nmol/l promegestone and additionally with increasing amounts of the particular test compound (0.01 nmol/l, 0.1 nmol/l, 1 nmol/l, 10 nmol/l, 100 nmol/l and 1 μmol/l). The activity of the reporter gene LUC (LUC=luciferase) was determined in the cell lysates and was measured as RLU (relative light units). All measured values are given as % efficacy and as EC50 or IC50 concentrations.

Compound	IC50 [nM]
C[C@]12C[C@H](c3ccc(C(=O)Nc4ccccc4)cc3)C3=C4CCC(=O)C=C4CC[C@H]3[C@@H]1CC[C@@]2(O)C(F)(F)C(F)(F)F [Example 22, 4-[(11β,17β)-17-hydroxy-3-oxo-17-(pentafluoroethyl)estra-4,9-dien-11-yl]-N-phenylbenzamide]	39
C[C@]12C[C@H](c3ccc(C(=O)NCc4cccc(Cl)c4)cc3)C3=C4CCC(=O)C=C4CC[C@H]3[C@@H]1CC[C@@]2(O)C(F)(F)C(F)(F)F [Example 56, N-(3-chlorobenzyl)-4-[(11β,17β)-17-hydroxy-3-oxo-17-(pentafluoroethyl)estra-4,9-dien-11-yl]benzamide]	2.3
CCNC(=O)c1ccc([C@H]2C[C@@]3(C)[C@@H](CC[C@@]3(O)C(F)(F)C(F)(F)F)[C@@H]3CCC4=CC(=O)CCC4=C32)cc1 [Example 19, N-ethyl-4-[(11β,17β)-17-hydroxy-3-oxo-17-(pentafluoroethyl)estra-4,9-dien-11-yl]benzamide]	1.4
C[C@]12C[C@H](c3ccc(C(=O)N4CCN(Cc5ccncc5)CC4)cc3)C3=C4CCC(=O)C=C4CC[C@H]3[C@@H]1CC[C@@]2(O)C(F)(F)C(F)(F)F [Example 49, (11β,17β)-17-hydroxy-17-(pentafluoroethyl)-11-(4-{[4-(pyridin-4-ylmethyl)piperazin-1-yl]carbonyl}phenyl)estra-4,9-dien-3-one]	7.6
COc1cccc(NC(=O)c2ccc([C@H]3C[C@@]4(C)[C@@H](CC[C@@]4(O)C(F)(F)C(F)(F)F)[C@@H]4CCC5=CC(=O)CCC5=C43)cc2)c1 [Example 24, 4-[(11β,17β)-17-hydroxy-3-oxo-17-(pentafluoroethyl)estra-4,9-dien-11-yl]-N-(3-methoxyphenyl)benzamide]	3.7
COc1ccccc1NC(=O)c1ccc([C@H]2C[C@@]3(C)[C@@H](CC[C@@]3(O)C(F)(F)C(F)(F)F)[C@@H]3CCC4=CC(=O)CCC4=C32)cc1 [Example 23, 4-[(11β,17β)-17-hydroxy-3-oxo-17-(pentafluoroethyl)estra-4,9-dien-11-yl]-N-(2-methoxyphenyl)benzamide]	86
CC(C)(NC(=O)c1ccc([C@H]2C[C@@]3(C)[C@@H](CC[C@@]3(O)C(F)(F)C(F)(F)F)[C@@H]3CCC4=CC(=O)CCC4=C32)cc1)c1ccccc1 [Example 17, 4-[(11β,17β)-17-hydroxy-3-oxo-17-(pentafluoroethyl)estra-4,9-dien-11-yl]-N-(2-phenylpropan-2-yl)benzamide]	0.21
C[C@]12C[C@H](c3ccc(C(=O)NCCCN4CCOCC4)cc3)C3=C4CCC(=O)C=C4CC[C@H]3[C@@H]1CC[C@@]2(O)C(F)(F)C(F)(F)F [Example 13, 4-[(11β,17β)-17-hydroxy-3-oxo-17-(pentafluoroethyl)estra-4,9-dien-11-yl]-N-[3-(morpholin-4-yl)propyl]benzamide]	24
CCN(CC)C(=O)c1ccc([C@H]2C[C@@]3(C)[C@@H](CC[C@@]3(O)C(F)(F)C(F)(F)F)[C@@H]3CCC4=CC(=O)CCC4=C32)cc1 [Example 27, N,N-diethyl-4-[(11β,17β)-17-hydroxy-3-oxo-17-(pentafluoroethyl)estra-4,9-dien-11-yl]benzamide]	133
CN(Cc1ccccn1)C(=O)c1ccc([C@H]2C[C@@]3(C)[C@@H](CC[C@@]3(O)C(F)(F)C(F)(F)F)[C@@H]3CCC4=CC(=O)CCC4=C32)cc1 [Example 31, 4-[(11β,17β)-17-hydroxy-3-oxo-17-(pentafluoroethyl)estra-4,9-dien-11-yl]-N-methyl-N-(pyridin-2-ylmethyl)benzamide]	10.8
CC(=O)Nc1ccc(NC(=O)c2ccc([C@H]3C[C@@]4(C)[C@@H](CC[C@@]4(O)C(F)(F)C(F)(F)F)[C@@H]4CCC5=CC(=O)CCC5=C43)cc2)cc1 [Example 52, N-(4-acetamidophenyl)-4-[(11β,17β)-17-hydroxy-3-oxo-17-(pentafluoroethyl)estra-4,9-dien-11-yl]benzamide]	0.71
C[C@]12C[C@H](c3ccc(C(=O)Nc4ccncc4)cc3)C3=C4CCC(=O)C=C4CC[C@H]3[C@@H]1CC[C@@]2(O)C(F)(F)C(F)(F)F [Example 14, 4-[(11β,17β)-17-hydroxy-3-oxo-17-(pentafluoroethyl)estra-4,9-dien-11-yl]-N-(pyridin-4-yl)benzamide]	0.42
CN(CCc1ccccc1)C(=O)c1ccc([C@H]2C[C@@]3(C)[C@@H](CC[C@@]3(O)C(F)(F)C(F)(F)F)[C@@H]3CCC4=CC(=O)CCC4=C32)cc1 [Example 43, 4-[(11β,17β)-17-hydroxy-3-oxo-17-(pentafluoroethyl)estra-4,9-dien-11-yl]-N-methyl-N-(2-phenylethyl)benzamide]	10.8

Now from value to compound:

IC50 [nM]	Compound
0.39	C[C@]12C[C@H](c3ccc(C(=O)Nc4ccc(C(=O)Nc5ccccc5)cc4)cc3)C3=C4CCC(=O)C=C4CC[C@H]3[C@@H]1CC[C@@]2(O)C(F)(F)C(F)(F)F [Example 60, 4-[(11β,17β)-17-hydroxy-3-oxo-17-(pentafluoroethyl)estra-4,9-dien-11-yl]-N-[4-(phenylcarbamoyl)phenyl]benzamide]
94	CN1CCN(CCNC(=O)c2ccc([C@H]3C[C@@]4(C)[C@@H](CC[C@@]4(O)C(F)(F)C(F)(F)F)[C@@H]4CCC5=CC(=O)CCC5=C43)cc2)CC1 [Example 62, 4-[(11β,17β)-17-hydroxy-3-oxo-17-(pentafluoroethyl)estra-4,9-dien-11-yl]-N-[2-(4-methylpiperazin-1-yl)ethyl]benzamide]
140	C[C@]12C[C@H](c3ccc(C(=O)Nc4cccc(C(=O)O)c4)cc3)C3=C4CCC(=O)C=C4CC[C@H]3[C@@H]1CC[C@@]2(O)C(F)(F)C(F)(F)F [Example 77, 3-({4-[(11β,17β)-17-Hydroxy-3-oxo-17-(pentafluoroethyl)estra-4,9-dien-11-yl]benzoyl}amino)benzoic acid]
6.9	C[C@]12C[C@H](c3ccc(C(=O)NCC4CC4)cc3)C3=C4CCC(=O)C=C4CC[C@H]3[C@@H]1CC[C@@]2(O)C(F)(F)C(F)(F)F [Example 59, N-(cyclopropylmethyl)-4-[(11β,17β)-17-hydroxy-3-oxo-17-(pentafluoroethyl)estra-4,9-dien-11-yl]benzamide]
0.8	COC(=O)c1cccc(NC(=O)c2ccc([C@H]3C[C@@]4(C)[C@@H](CC[C@@]4(O)C(F)(F)C(F)(F)F)[C@@H]4CCC5=CC(=O)CCC5=C43)cc2)c1 [Example 57, methyl-3-({4-[(11β,17β)-17-hydroxy-3-oxo-17-(pentafluoroethyl)estra-4,9-dien-11-yl]benzoyl}amino)benzoate]
1.4	CN(CCc1cccnc1)C(=O)c1ccc([C@H]2C[C@@]3(C)[C@@H](CC[C@@]3(O)C(F)(F)C(F)(F)F)[C@@H]3CCC4=CC(=O)CCC4=C32)cc1 [Example 72, 4-[(11β,17β)-17-hydroxy-3-oxo-17-(pentafluoroethyl)estra-4,9-dien-11-yl]-N-methyl-N-[2-(pyridin-3-yl)ethyl]benzamide]
1.7	COC(=O)N1CCN(C(=O)c2ccc([C@H]3C[C@@]4(C)[C@@H](CC[C@@]4(O)C(F)(F)C(F)(F)F)[C@@H]4CCC5=CC(=O)CCC5=C43)cc2)CC1 [Example 70, methyl-4-{4-[(11β,17β)-17-hydroxy-3-oxo-17-(pentafluoroethyl)estra-4,9-dien-11-yl]benzoyl}piperazine-1-carboxylate]
16	C[C@]12C[C@H](c3ccc(C(=O)N4CCN(Cc5ccccn5)CC4)cc3)C3=C4CCC(=O)C=C4CC[C@H]3[C@@H]1CC[C@@]2(O)C(F)(F)C(F)(F)F [Example 68, (11β,17β)-17-hydroxy-17-(pentafluoroethyl)-11-(4-{[4-(pyridin-2-ylmethyl)piperazin-1-yl]carbonyl}phenyl)estra-4,9-dien-3-one]
